From patent US12656356B2, “Pregabalin immunoassays” (ARK Diagnostics, Inc., priority 2015, dated 2026)
Values joined by “and” are separate entries in the source; they are usually repeats but may differ in a detail not shown here. Equal entries are not always repeated.

Tested on: antibody #10930
Experiment: not given
Type: binding, rabbit
Details: not given

| Structure (SMILES) | Reaction Rate (mA/min) Average of Duplicates |
| --- | --- |
| CC(C)C[C@H](CN)CC(=O)O [Pregabalin, (S)-3-(aminomethyl)-5-methylhexanoic acid] | 432.5 mA/min and 344.0 mA/min and 381.5 mA/min and 407.0 mA/min |

Tested on: anti-pregabalin antibody
Experiment: Specificity of the homogeneous enzyme immunoassay (cross-reactivity)
Type: binding, rabbit
Details: compound at 200 μg/mL added to pooled pregabalin-free human urine; Siemens Viva-E System
Description: Antibodies obtained using any of the disclosed techniques are screened or purified not only for their ability to react with pregabalin, but for a low cross-reactivity with potential interfering substances. “Cross-reactivity” may be determined in a quantitative immunoassay by establishing a standard curve using known dilutions of the target analyte, pregabalin. […] The cross-reactivity is the apparent concentration divided by the actual concentration multiplied by 100. […] Furthermore, the cross-reactivity can be determined in the same type of immunoassay in which the antibody will ultimately be used.
An analyzer (instrument) useful to set up the assay is Siemens Viva-E. The Siemens Viva-E® System is an automated biochemistry analyzer used by medical and toxicology laboratories to process biological fluid specimens, such as urine, cerebrospinal fluid, and most commonly, blood. […] The enzyme conjugate activity decreases upon binding to the antibody. The enzyme conjugate, which is not bound to the antibody, catalyzes the oxidation of glucose-6-phosphate. The oxidation of glucose-6-phosphate is coupled with the reduction of NAD^+ to NADH, which can be measured at 340 nm. The change in the absorbance at 340 nm can be measured spectrophotometrically. The pregabalin concentration in a urine specimen can be measured in terms of G6PDH activity. The increase in the rate at 340 nm is due to the formation of NADH and is proportional to the enzyme conjugate activity. An assay curve can be generated using pregabalin spiked into pooled human pregabalin-free urine. The assay rate increases with increasing the concentration of free drug in the sample.
The specificity of the immunoassay was evaluated by adding a compound to pooled pregabalin-free human urine samples fortified with EDTA, and NaN3 preservative and testing the samples and determining the percent cross-reactivity. Separate stock solutions of each compound were prepared in methanol. […] The percentage cross-reactivity was calculated for each compound tested.

| Structure (SMILES) | % Crossreactivity [%] |
| --- | --- |
| NCC(=O)O [L-Glycine] | 0.005 |
| C[C@H](N)C(=O)O [L-Alanine] | 0.004 |
| N=C(N)NCCC[C@H](N)C(=O)O [L-Arginine] | 0.006 |
| N[C@@H](CS)C(=O)O [L-Cysteine] | 0.005 |
| CC(C)[C@H](N)C(=O)O [L-Valine] | 0.006 |
| CC(C)C[C@H](N)C(=O)O [L-Leucine, L-leucine] | 0.038 |
| N[C@@H](CCC(=O)O)C(=O)O [L-Glutamic Acid] | 0.006 |
| N[C@@H](Cc1ccc(O)cc1)C(=O)O [L-Tyrosine] | 0.004 |
| N[C@@H](Cc1ccccc1)C(=O)O [L-Phenylalanine] | 0.006 |
| NC(=O)CC[C@H](N)C(=O)O [L-Glutamine] | 0.004 |
| NCCCC[C@H](N)C(=O)O [L-Lysine] | 0.001 |
| N[C@@H](Cc1c[nH]c2ccccc12)C(=O)O [L-Tryptophan] | 0.006 |
| CSCC[C@H](N)C(=O)O [L-Methionine] | 0.031 |
| NC(=O)C[C@H](N)C(=O)O [L-Asparagine] | 0.004 |
| O=C(O)[C@@H]1CCCN1 [L-Proline] | 0.004 |
| NCC1(CC(=O)O)CCCCC1 [Gabapentin] | 0.019 |
| N[C@@H](CC(=O)O)C(=O)O [L-Aspartic Acid] | 0.004 |
| N[C@@H](Cc1c[nH]cn1)C(=O)O [L-Histidine] | 0.007 |
| C[C@@H](O)[C@H](N)C(=O)O [L-Threonine] | 0.005 |
| N[C@@H](CO)C(=O)O [L-Serine] | 0.005 |
| CC[C@H](C)[C@H](N)C(=O)O [L-Isoleucine] | 0.008 |
